pIC50: −log10 of the molar value.
biological target: T1, human EP3 receptor (Homo sapiens, UniProt P43115); assay: Cellular in vitro assay for determining EP3 receptor activity (human EP3 cell line, sulprostone-stimulated calcium luminescence); format: cell-based; settings: CHO cells expressing human EP3 and mitochondrial Clytin; antagonist mode, sulprostone at EC50; read-out: EP3 CHO mtCLY ANTAG IC50
T1 construct: expressed in transfected cells; host or cells: CHO K1 (Chinese Hamster Ovary), stably co-transfected with Galpha16 and mitochondrial clytin
T1 sequence (P43115 1-390): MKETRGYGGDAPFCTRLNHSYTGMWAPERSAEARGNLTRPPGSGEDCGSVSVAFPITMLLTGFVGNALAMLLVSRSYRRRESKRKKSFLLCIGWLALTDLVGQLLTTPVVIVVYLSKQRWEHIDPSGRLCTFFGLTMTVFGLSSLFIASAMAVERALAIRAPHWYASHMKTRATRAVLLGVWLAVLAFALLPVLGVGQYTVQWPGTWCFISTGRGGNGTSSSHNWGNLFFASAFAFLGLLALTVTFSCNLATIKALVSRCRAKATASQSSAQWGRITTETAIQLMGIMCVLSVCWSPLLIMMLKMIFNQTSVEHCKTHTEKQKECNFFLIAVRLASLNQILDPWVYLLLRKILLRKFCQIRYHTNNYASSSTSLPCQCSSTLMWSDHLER
In short: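 Antagonist activity was measured as inhibition of the luminescent calcium signal elicited by EC50 sulprostone, following 10 min compound pretreatment. The cell line was recombinant CHO K1 co-expressing human EP3, Gα16 and the photoprotein Clytin, reconstituted with coelenterazine.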

| pIC50 | SMILES |
| --- | --- |
| 8.10 | Cc1ccc([C@H](C)NC(=O)c2nn3c(C)c(-c4ccc5ccccc5c4)[nH]c(=O)c3c2C)cc1 [Example 3-20, 3,7-Dimethyl-N-[(7S)-1-(4-methylphenyl)ethyl]-6-(naphthalen-2-yl)-4-oxo-4,5-dihydropyrazolo[1,5-a]pyrazine-2-carboxamide] |
| 8.74 | Cc1c(C(=O)NC(C)c2ccc(F)cc2)nn2c(C)c(-c3ccc4ccccc4c3)[nH]c(=O)c12 (stereo not drawn) [Example 3-21, N-[1-(4-Fluorophenyl)ethyl]-3,7-dimethyl-6-(2-naphthyl)-4-oxo-5H-pyrazolo[1,5-a]pyrazine-2-carboxamide] |
| 8.63 | Cc1c(C(=O)N[C@@H](C)c2ccccc2)nn2c(C)c(-c3ccc4ccccc4c3)[nH]c(=O)c12 [Example 3-22, 3,7-Dimethyl-6-(naphthalen-2-yl)-4-oxo-N-[(7S)-1-phenylethyl]-4,5-dihydropyrazolo[1,5-a]pyrazine-2-carboxamide] |
| 8.49 | Cc1c(C(=O)NC(C)c2ccc(S(C)(=O)=O)cc2)nn2c(C)c(-c3ccc4ccccc4c3)[nH]c(=O)c12 (stereo not drawn) [Example 3-23, 3,7-Dimethyl-N-[1-(4-methylsulfonylphenyl)ethyl]-6-(2-naphthyl)-4-oxo-5H-pyrazolo[1,5-a]pyrazine-2-carboxamide] |
| 8.31 | Cc1c(C(=O)NC(C)c2cccc(Br)c2)nn2c(C)c(-c3ccc4ccccc4c3)[nH]c(=O)c12 (stereo not drawn) [Example 3-24, N-[1-(3-Bromophenyl)ethyl]-3,7-dimethyl-6-(2-naphthyl)-4-oxo-5H-pyrazolo[1,5-a]pyrazine-2-carboxamide] |
| 8.62 | Cc1c(C(=O)NC2(c3ccccc3)CC2)nn2c(C)c(-c3ccc4ccccc4c3)[nH]c(=O)c12 [Example 3-25, 3,7-Dimethyl-6-(naphthalen-2-yl)-4-oxo-N-(1-phenylcyclopropyl)-4,5-dihydropyrazolo[1,5-a]pyrazine-2-carboxamide] |
| 8.38 | CCc1ccc(C(C)NC(=O)c2nn3c(C)c(-c4ccc5ccccc5c4)[nH]c(=O)c3c2C)cc1 (stereo not drawn) [Example 3-26, N-[1-(4-Ethylphenyl)ethyl]-3,7-dimethyl-6-(2-naphthyl)-4-oxo-5H-pyrazolo[1,5-a]pyrazine-2-carboxamide] |
| 8.68 | Cc1c(C(=O)NC2(c3ccc(C#N)cc3)CC2)nn2c(C)c(-c3ccc4ccccc4c3)[nH]c(=O)c12 [Example 3-27, N-[1-(4-Cyanophenyl)cyclopropyl]-3,7-dimethyl-6-(naphthalen-2-yl)-4-oxo-4,5-dihydropyrazolo[1,5-a]pyrazine-2-carboxamide] |
| 8.37 | COc1ccccc1C(C)NC(=O)c1nn2c(C)c(-c3ccc4ccccc4c3)[nH]c(=O)c2c1C (stereo not drawn) [Example 3-28, N-[1-(2-Methoxyphenyl)ethyl]-3,7-dimethyl-6-(2-naphthyl)-4-oxo-5H-pyrazolo[1,5-a]pyrazine-2-carboxamide] |
| 8.33 | Cc1c(C(=O)N[C@H]2CCc3ccccc32)nn2c(C)c(-c3ccc4ccccc4c3)[nH]c(=O)c12 [Example 3-29, N-[(7S)-2,3-Dihydro-1H-inden-1-yl]-3,7-dimethyl-6-(naphthalen-2-yl)-4-oxo-4,5-dihydropyrazolo[1,5-a]pyrazine-2-carboxamide] |
| 8.03 | Cc1c(C(=O)NC(C)(C)c2cc(Cl)cc(Cl)c2)nn2c(C)c(-c3ccc4ccccc4c3)[nH]c(=O)c12 [Example 3-30, N-[2-(3,5-Dichlorophenyl)propan-2-yl]-3,7-dimethyl-6-(naphthalen-2-yl)-4-oxo-4,5-dihydropyrazolo[1,5-a]pyrazine-2-carboxamide] |
| 8.35 | Cc1c(C(=O)NC(C)c2ccc3c(c2)OCCO3)nn2c(C)c(-c3ccc4ccccc4c3)[nH]c(=O)c12 (stereo not drawn) [Example 3-31, N-[1-(2,3-Dihydro-1,4-benzodioxin-6-yl)ethyl]-3,7-dimethyl-6-(2-naphthyl)-4-oxo-5H-pyrazolo[1,5-a]pyrazine-2-carboxamide] |

— US20220324865A1 (Bayer Aktiengesellschaft, priority 2018, published 2022)
